In experiment [1] the target is Arginine Vasopressin Receptor 1A (AVPR1A) (Homo sapiens, UniProt P37288). Kind of experiment: SAFETYscan GPCR Calcium Flux. The experiment is classed as cell-based. The following applies: read-out: RC50 (the source's name). (Calcium flux is commonly read through the fluorescence of an indicator in the cells.)
Experiment [2] concerns the target T1, Dopamine Receptor D2 (DRD2S) (Homo sapiens, UniProt P14416).
T1 construct: host or cells: cAMP Hunter cell lines
Kind of experiment: SAFETYscan GPCR cAMP. The experiment is classed as cell-based.

Experiment [3] concerns the target Histamine Receptor H2 (HRH2) (Homo sapiens, UniProt P25021). The experiment in a line: SAFETYscan GPCR cAMP. Format: cell-based. The following applies: read-out: RC50 (the source's name).
Experiment [4] has as its target 5-Hydroxy tryptamine (Serotonin) Receptor 2A (HTR2A) (Homo sapiens, UniProt P28223). The experiment in a line: SAFETYscan GPCR Calcium Flux. The experiment is classed as cell-based.
A further experiment deals with T2, IGF1R (Homo sapiens, UniProt P08069).
T2 construct: amino acids 959-1367, Carna (cat. & lot #: 08); purchased Carna 08-141
T2 sequence (P08069 959-1367): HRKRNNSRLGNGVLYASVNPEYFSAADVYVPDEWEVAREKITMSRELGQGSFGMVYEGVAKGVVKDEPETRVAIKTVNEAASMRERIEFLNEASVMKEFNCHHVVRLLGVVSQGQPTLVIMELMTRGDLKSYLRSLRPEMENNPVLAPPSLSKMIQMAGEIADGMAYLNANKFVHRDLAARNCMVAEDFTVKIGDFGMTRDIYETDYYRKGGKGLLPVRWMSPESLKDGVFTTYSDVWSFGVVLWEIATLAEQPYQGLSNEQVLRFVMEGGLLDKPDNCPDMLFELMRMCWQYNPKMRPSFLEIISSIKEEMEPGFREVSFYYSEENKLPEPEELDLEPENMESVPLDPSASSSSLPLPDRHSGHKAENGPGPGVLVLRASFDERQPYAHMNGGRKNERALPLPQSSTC
The experiment in a line: PhosphoSens CSox based kinase assay. The experiment is classed as biochemical. As to conditions: 5 μM HU-MCA-13. From the text: (§1) The initial focus was to measure the modulatory activity in vitro of MCA-13 on protein kinases which were reported to be involved in induction of neurite outgrowth.[18],[43] To do this, we took advantage of a powerful method to measure the activity of recombinant protein kinases using a homogeneous and continuous (kinetic) format, where the level of chelation-enhanced fluorescence (CHEF) is directly proportional to the amount of phosphorylated, real-time sensors consisting of sulfonamido-oxine (Sox) chromophore linked to a peptide or protein substrates of selective kinases.[44] This assay is ideal for elucidating drug mechanism of action and is increasingly being applied earlier in the drug development workflow to address off target effects and/or the challenges and opportunities for next generation protein kinase inhibitors.[45] Since neurotrophins induce neurite outgrowth by activating the different tropomyosin kinase receptors (Trk), and small molecules agonists of Trk receptors can selectively activate Trks,[46] we first investigated the ability of HU-MCA-13 to modulate TRKA, TRKB and TRKC phosphorylation activities (Supporting Information, Figure S3-2). […] The TRKs constructs used in the assay contained only the intracellular kinase domain (amino acids 442–786) and therefore presently we cannot exclude that HU-MCA-13 may interact with the TRKs extracellular domain thereby inducing the conformational change required for the kinase domain activation. […] Moreover, no effects of HU-MCA-13were found on other kinases (ASK1, ERK2, JNK3, p38α, CDK5, KDR-VEGFR, AKT1, GSK3β, PDGFRβ, PKACα, PKC, CK1, IKKβ) which stimulate neurite outgrowth. Also, no effects were observed of HU-MCA-13 on kinases (EGFR, IGF1R, FGFR 1 and 2, CAMK2α,) which inhibit neurite outgrowth or calcineurin phosphatase which dephosphorylates the neurite outgrowth stimulatory protein, cofilin.[47]
(§2) MCA-13 safety b y in vitro eval uati on usi ng Phos pho Sens®C Soxb ased kinase […]
(§3) Method: Kinase Activity Measurements
(§4) Kinase activity was measured continuously using the PhosphoSens®technology (AssayQuant Technologies Inc., Marlborough, MA) according to the manufacturers’ recommendations (http://www.assayquant.com/) . This one-step homogeneous assay use s chelation-enh anced fluorescence via optimized substrate sensors unique for each kinase, containing the unnatural fluorogenic amino-acid Sox.
(§5) The following kinases which, upon stimulation or inhibition with small molecule modulators, induced neurite outgrowth, were obtained from different companies and were used in this study at the following concentrations: 2.
(§6) 25 µL final reaction volume including : 2.5 µl Sox-based substrate (10 x), 17.5 µl reaction mix with AT P, 5.0 µL Kinase [5x in EDB (Enzyme Dilution Buffer : 20 mM TRIS, pH 8.0, 0.01% Brij -35, 0.1 mM EGTA, 5% Glycerol, 1 mM DTT, 1 mg/mL Bovine Serum Albumin]. 5-45 min preincubation (all except EDB/kinase) at 30 °C of substrate in reaction mix and ATP ensuring that the progress kinetic curve for the background fluorescence w as flat. Reaction was run at 30 °C for […]
(§7) Final Reaction Conditions.
(§8) Protein kinase activity was determined in 54 mM HEPES, pH 7.5 1 mM ATP 1.2 mM DTT (none in ASK1) 0.012% Brij-35 1% glycerol 0.2 mg/ml BSA 0.52 mM EGTA (none in assays of CAMK2α, PKCε, PKCι, Calcineurin A/B) 140 µM phosphatidylserine/3.8 µM diacylglycerol (PKCε, PKCι only) 5 ng/µl calmodulin/0.4 mM CaCl2 (CAMK2α, Calcineurin A/B only) 10 mM […]
(§9) IKKβ, AKT1, GSK3β, PKCε, PKCι, PKACα, KDR, CK1δ, EGFR, ASK1, IGF1R, CAMK2α, DLK, FGFR2, FGFR1) in the presence or absence of 5 µ M H U-MCA-13 test compound. All components e xcept enzyme were equilibrated to 30 °C prior to setting up reactions run in Corning, 384-well, white flat round bottom polystyrene NBS microplates (Cat. #3824) after sealing using optically-clear adhesive film [TopSealA -Plus plate seal, PerkinElmer (Cat. #6050185)], applied with a roller to eliminate evaporation and resulting drift. Europium was added to a final […]

The next experiment concerns the target T3, TRKC (Homo sapiens, UniProt Q16288).
T3 construct: TRKC, amino acids 45 6-825, BPS Bio; purchased BPS Bio 40282 (lot 140205-G2)
The experiment in a line: PhosphoSens CSox based kinase assay. The experiment is classed as biochemical. As to conditions: 5 μM HU-MCA-13; no effect on initial rate, small delay in later stage of progress curve.
From the text: as §1, §2, §3, §4, §5, §6, §7, §8, §9

Another experiment concerns the target T4, p38α (Homo sapiens, UniProt Q16539).
T4 construct: p38α, amino acids 9-352, Carna (cat. & lot #: 04-152,; purchased Carna 04-152
The experiment in a line: PhosphoSens CSox based kinase assay. Format: biochemical. The following applies: 5 μM HU-MCA-13.
From the text: as §1, §2, §3, §4, §5, §6, §7, §8, §9

Molecules are shown by their SMILES. Bounds are passed on as bounds.

T1 sequence (P14416 1-414 isoform P14416-2): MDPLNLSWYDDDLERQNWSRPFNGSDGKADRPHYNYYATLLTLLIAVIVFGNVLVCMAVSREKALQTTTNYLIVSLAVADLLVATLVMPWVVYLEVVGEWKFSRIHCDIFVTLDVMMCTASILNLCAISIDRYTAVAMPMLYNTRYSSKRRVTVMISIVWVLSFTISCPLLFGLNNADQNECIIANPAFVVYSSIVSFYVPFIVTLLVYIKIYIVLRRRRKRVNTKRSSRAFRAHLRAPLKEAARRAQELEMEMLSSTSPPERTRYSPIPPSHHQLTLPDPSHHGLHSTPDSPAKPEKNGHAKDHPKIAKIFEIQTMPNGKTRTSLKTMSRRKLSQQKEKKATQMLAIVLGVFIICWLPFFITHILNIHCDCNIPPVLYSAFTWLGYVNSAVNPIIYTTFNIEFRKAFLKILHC
Chain of 5-Hydroxy tryptamine (Serotonin) Receptor 2A (HTR2A) (P28223 whole entry): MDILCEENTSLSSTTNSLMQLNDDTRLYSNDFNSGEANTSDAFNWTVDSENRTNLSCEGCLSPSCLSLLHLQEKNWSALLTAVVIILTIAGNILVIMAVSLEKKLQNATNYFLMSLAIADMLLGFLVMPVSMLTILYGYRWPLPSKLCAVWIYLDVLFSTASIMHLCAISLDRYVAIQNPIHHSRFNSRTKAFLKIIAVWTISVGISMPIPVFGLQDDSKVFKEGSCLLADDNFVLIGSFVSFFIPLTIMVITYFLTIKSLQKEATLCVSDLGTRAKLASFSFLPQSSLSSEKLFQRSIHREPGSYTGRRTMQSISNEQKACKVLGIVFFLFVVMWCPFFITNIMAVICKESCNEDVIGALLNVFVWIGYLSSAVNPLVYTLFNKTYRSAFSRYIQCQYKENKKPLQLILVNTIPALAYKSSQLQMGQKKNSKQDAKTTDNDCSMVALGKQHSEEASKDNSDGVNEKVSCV
Chain of Histamine Receptor H2 (HRH2) (P25021 whole entry): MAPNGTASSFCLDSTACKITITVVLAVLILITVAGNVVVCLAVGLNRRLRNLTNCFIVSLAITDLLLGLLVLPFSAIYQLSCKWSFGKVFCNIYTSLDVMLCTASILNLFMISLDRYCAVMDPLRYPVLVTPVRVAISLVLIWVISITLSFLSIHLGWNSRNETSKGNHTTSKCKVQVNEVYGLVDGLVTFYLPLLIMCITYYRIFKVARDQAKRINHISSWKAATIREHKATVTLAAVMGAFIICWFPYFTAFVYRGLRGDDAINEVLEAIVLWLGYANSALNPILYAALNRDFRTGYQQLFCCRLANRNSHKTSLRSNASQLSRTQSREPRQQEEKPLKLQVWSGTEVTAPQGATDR
Chain of Arginine Vasopressin Receptor 1A (AVPR1A) (P37288 whole entry): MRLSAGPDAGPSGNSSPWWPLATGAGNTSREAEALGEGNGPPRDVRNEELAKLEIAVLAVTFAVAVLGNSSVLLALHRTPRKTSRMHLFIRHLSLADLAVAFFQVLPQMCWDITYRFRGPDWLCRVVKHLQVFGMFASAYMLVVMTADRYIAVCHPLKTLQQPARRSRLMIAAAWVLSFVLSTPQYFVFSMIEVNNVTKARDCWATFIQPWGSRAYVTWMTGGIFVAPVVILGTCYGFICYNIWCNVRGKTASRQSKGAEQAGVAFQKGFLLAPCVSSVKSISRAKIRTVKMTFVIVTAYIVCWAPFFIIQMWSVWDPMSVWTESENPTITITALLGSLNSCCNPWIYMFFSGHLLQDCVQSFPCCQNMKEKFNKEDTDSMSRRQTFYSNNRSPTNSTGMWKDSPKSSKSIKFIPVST
T4 sequence (Q16539 9-352): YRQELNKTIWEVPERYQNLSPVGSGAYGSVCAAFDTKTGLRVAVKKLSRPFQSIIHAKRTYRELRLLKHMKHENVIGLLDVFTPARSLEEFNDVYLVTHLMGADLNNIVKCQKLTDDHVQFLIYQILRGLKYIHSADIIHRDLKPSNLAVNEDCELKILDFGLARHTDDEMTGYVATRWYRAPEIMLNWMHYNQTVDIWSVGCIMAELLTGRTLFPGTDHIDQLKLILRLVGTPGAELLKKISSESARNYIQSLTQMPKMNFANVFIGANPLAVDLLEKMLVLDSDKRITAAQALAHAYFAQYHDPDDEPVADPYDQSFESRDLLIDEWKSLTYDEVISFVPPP
T3 sequence (Q16288 456-825 isoform Q16288-3 limits assumed): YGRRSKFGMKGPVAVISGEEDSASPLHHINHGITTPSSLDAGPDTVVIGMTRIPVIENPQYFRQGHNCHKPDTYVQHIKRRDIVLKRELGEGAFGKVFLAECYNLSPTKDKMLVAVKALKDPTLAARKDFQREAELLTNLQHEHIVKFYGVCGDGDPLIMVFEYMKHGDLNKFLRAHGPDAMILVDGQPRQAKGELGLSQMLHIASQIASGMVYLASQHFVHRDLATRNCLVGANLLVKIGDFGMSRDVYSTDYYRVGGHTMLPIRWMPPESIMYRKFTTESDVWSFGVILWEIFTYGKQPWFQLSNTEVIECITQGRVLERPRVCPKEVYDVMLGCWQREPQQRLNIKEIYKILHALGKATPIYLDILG

`C=CCC1CCCC(CCC(=O)O)C1=C` (centres unmarked) [HU-MCA-13, 3-(3-allyl-2-methylenecyclohexyl)propanoic acid]: the EC50 in experiment [1] (Agonist), in experiment [2], in experiment [3] (Agonist) and in experiment [4] was greater than 10 µM throughout. The IC50 in experiment [1] (Antagonist), in experiment [2], in experiment [3] (Antagonist) and in experiment [4] was greater than 10 µM throughout. Besides, the “effect on kinase activity” value at IGF1R and on p38α was “no effects” each time. The “modulation of phosphorylation activity” value at TRKC is reported as “slight inhibitory effect”.

These data come from PMC7497641, “Neurotropic activity and safety of methylene-cycloalkylacetate (MCA) derivative 3-(3-allyl-2-methylenecyclohexyl) propanoic acid” (ACS Chemical Neuroscience, 2020).
